Consider 33 compounds from the Biogen ADME set (Fang et al. 2023).

The conditions of the data set: for aqueous solubility: pH 6.8.

The structures appear in SMILES notation. Values after ≈ are worked out from the molar mass of the structure shown.

In the case of `O=C(NCCc1ccc2c(c1)OCO2)Nc1ccncc1`, the MDR1-MDCK efflux ratio worked out at 3.6; the intrinsic clearance, human liver microsomes came to 8.32 mL/min/kg; the intrinsic clearance, rat liver microsomes was found to be 27.3 mL/min/kg; the aqueous solubility was 46.5 µg/mL (≈ 163 µM).
On to `C[C@H](NC(=O)CCC(F)(F)F)C(=O)N[C@@H]1C(=O)N(CCO)c2ncccc2-c2ccccc21`, for which the MDR1-MDCK efflux ratio came to 24; the intrinsic clearance, human liver microsomes is not above 4.74 mL/min/kg; the intrinsic clearance, rat liver microsomes came to 10.8 mL/min/kg.
For `O=c1[nH]c2ccccc2n1C1CCN(CCOc2ccccc2)CC1`, the MDR1-MDCK efflux ratio is 2.14; the intrinsic clearance, human liver microsomes is 29.6 mL/min/kg; the intrinsic clearance, rat liver microsomes came out at 357 mL/min/kg; the aqueous solubility worked out at 47.4 µg/mL (≈ 140 µM).
On to `Nc1ccc(Nc2ncc3cnn(C4CCCCCC4)c3n2)cn1`, for which the intrinsic clearance, human liver microsomes was 82.2 mL/min/kg and the intrinsic clearance, rat liver microsomes is 216 mL/min/kg.
Consider `O=C(O)c1nc(-c2ccccc2)oc1-c1ccccc1`, for which the MDR1-MDCK efflux ratio was 0.802; the intrinsic clearance, human liver microsomes is 6.99 mL/min/kg; the intrinsic clearance, rat liver microsomes is not above 10.7 mL/min/kg; the aqueous solubility stood at 40.8 µg/mL (≈ 154 µM).
`Cc1n[nH]c(C)c1CCCN(C)c1cncc(C(=O)N(C)C)n1`: the MDR1-MDCK efflux ratio came out at 93.7; the intrinsic clearance, human liver microsomes came out at 87.4 mL/min/kg; the intrinsic clearance, rat liver microsomes turned out to be 529 mL/min/kg.
Take `CCc1ccc(S(=O)(=O)NCc2ccnc(N3CCCC3)n2)cc1`: the MDR1-MDCK efflux ratio was 0.891; the intrinsic clearance, human liver microsomes stood at 311 mL/min/kg; the intrinsic clearance, rat liver microsomes was found to be 2060 mL/min/kg; the aqueous solubility came to 67.7 µg/mL (≈ 195 µM).
For `CCCN1CCCN(c2ncccc2C#N)CC1`, in that order: 0.42, 29.4 mL/min/kg, 1680 mL/min/kg and 27.9 µg/mL (≈ 114 µM).
As to `Cc1ccccc1NC(=O)Cn1nnc(C2CC2)n1`, the MDR1-MDCK efflux ratio was found to be 0.895; the intrinsic clearance, human liver microsomes is not above 4.74 mL/min/kg; the intrinsic clearance, rat liver microsomes came out at 51.4 mL/min/kg.
As to `COCCCNc1nnc(-c2ccncc2)s1`, the MDR1-MDCK efflux ratio came to 0.654; the intrinsic clearance, human liver microsomes stood at 13.3 mL/min/kg; the intrinsic clearance, rat liver microsomes came out at 84.1 mL/min/kg.
`Cc1cccc(-c2nc(C34CCC(C(N)=O)(CC3)CC4)[nH]c2-c2ccc3c(c2)OCO3)n1` returned a fraction unbound, human plasma of 0.105 and a fraction unbound, rat plasma of 0.0162.
For the compound `Cc1noc(-c2ccc(-c3ccc(CC(=O)O)cc3)cc2)c1NC(=O)O[C@H](C)c1ccccc1Cl`, the MDR1-MDCK efflux ratio was found to be 7.69; the intrinsic clearance, human liver microsomes is not above 4.74 mL/min/kg; the intrinsic clearance, rat liver microsomes worked out at 19.5 mL/min/kg; the aqueous solubility amounted to 10.4 µg/mL (≈ 21.2 µM).
For the compound `Cc1cnccc1-c1cnc(N(C)C)nc1-c1ccco1`, the MDR1-MDCK efflux ratio was 0.636; the intrinsic clearance, human liver microsomes was determined as 140 mL/min/kg; the intrinsic clearance, rat liver microsomes turned out to be 2250 mL/min/kg.
For `Cc1cc(-c2cn(C)nc2[C@H]2CC[C@H](CNC(=O)C(C)C)CC2)on1`, in that order: 30.3, not above 4.74 mL/min/kg and 268 mL/min/kg.
For `Cc1cc(N2CCN(CC3CCN(C(=O)CC(C)C)CC3)CC2)n[nH]1`, in that order: 9.48, 7.34 mL/min/kg and not above 10.7 mL/min/kg.
With `N#Cc1c(O)nc(SCc2cccc(F)c2F)nc1C1CC1`, the MDR1-MDCK efflux ratio worked out at 0.817 and the aqueous solubility came to 2.1 µg/mL (≈ 6.58 µM).
`CC(=O)Nc1ccc(Oc2ncnc3scc(-c4ccccc4)c23)cc1`: the MDR1-MDCK efflux ratio worked out at 0.804; the intrinsic clearance, human liver microsomes came to 39 mL/min/kg; the intrinsic clearance, rat liver microsomes turned out to be 438 mL/min/kg; the aqueous solubility was 8.9 µg/mL (≈ 24.6 µM).
Take `Clc1cccc(CNc2nc(C3CC3)no2)c1`: the MDR1-MDCK efflux ratio worked out at 0.476; the intrinsic clearance, human liver microsomes was 22 mL/min/kg; the intrinsic clearance, rat liver microsomes came out at 165 mL/min/kg; the aqueous solubility amounted to 29.3 µg/mL (≈ 117 µM).
For `O=C(CCc1cccs1)Nc1ccc(N2CCOCC2)cn1`, in that order: 0.618, 21.6 mL/min/kg, 49.2 mL/min/kg and 32.2 µg/mL (≈ 101 µM).
Turning to `C#CCNC(=O)CN1CCCN(C(=O)c2cccc(C)n2)CC1`, the MDR1-MDCK efflux ratio is 32.5; the intrinsic clearance, human liver microsomes was not above 4.74 mL/min/kg; the intrinsic clearance, rat liver microsomes is 15.7 mL/min/kg; the aqueous solubility was 36.5 µg/mL (≈ 116 µM).
In turn, `O=S(=O)(NCC1C2CC3CC(C2)CC1C3)C1CCOCC1` (stereo unspecified) came in with an aqueous solubility of 58.2 µg/mL (≈ 186 µM).
`CC(=O)NCCOc1ccc2ccccc2n1` displayed an intrinsic clearance, human liver microsomes of 12.9 mL/min/kg and an intrinsic clearance, rat liver microsomes of 89.1 mL/min/kg.
For the compound `Cc1ncsc1C(=O)N1CCCCC1c1nc(N(C)C)ncc1-c1cccc(Cl)c1` (stereo unspecified), the MDR1-MDCK efflux ratio came out at 1.28; the fraction unbound, human plasma turned out to be 0.00826; the fraction unbound, rat plasma came out at 0.0105; the intrinsic clearance, human liver microsomes came out at 236 mL/min/kg. This compound also registered an intrinsic clearance, rat liver microsomes of 1200 mL/min/kg and an aqueous solubility of 18.2 µg/mL (≈ 41.2 µM).
Compound `CC(C)[C@@H](C(=O)Nc1nc2ccccc2[nH]1)N1Cc2ccccc2C1=O` registered an intrinsic clearance, human liver microsomes not above 4.74 mL/min/kg; an intrinsic clearance, rat liver microsomes of 262 mL/min/kg; an aqueous solubility of 11 µg/mL (≈ 31.6 µM).
For the compound `O=C(COc1cccc(-n2cncn2)c1)N1CCc2ccccc21`, the intrinsic clearance, human liver microsomes was determined as 37.8 mL/min/kg and the intrinsic clearance, rat liver microsomes turned out to be 336 mL/min/kg.
Regarding `CCN1CCN(C(=O)CNc2ncnc3onc(C)c23)CC1`, the MDR1-MDCK efflux ratio is 3.68; the intrinsic clearance, human liver microsomes is not above 4.74 mL/min/kg; the intrinsic clearance, rat liver microsomes was not above 10.7 mL/min/kg.
With `CC(C)N1CCN(CCCSc2ccccn2)CC1`, the MDR1-MDCK efflux ratio was found to be 0.74; the intrinsic clearance, human liver microsomes came out at 128 mL/min/kg; the intrinsic clearance, rat liver microsomes was found to be 1080 mL/min/kg.
For `CCN(CC#N)C(=O)c1nn(-c2ccc(F)cc2)c2c1CCCC2`, the MDR1-MDCK efflux ratio came out at 0.712; the intrinsic clearance, human liver microsomes is 50.2 mL/min/kg; the intrinsic clearance, rat liver microsomes is 397 mL/min/kg; the aqueous solubility was 40.5 µg/mL (≈ 124 µM).
Regarding `CSc1ccc(C)c(C(=O)NCCN2CCC(C)CC2)c1`, the MDR1-MDCK efflux ratio was 0.841; the intrinsic clearance, human liver microsomes worked out at 39.6 mL/min/kg; the intrinsic clearance, rat liver microsomes came to 1750 mL/min/kg.
In the case of `CC(C(=O)Nc1ccc(C(N)=O)cc1)N1CCCC(c2nc3ccccc3o2)C1` (stereo unspecified), the MDR1-MDCK efflux ratio stood at 15.1; the intrinsic clearance, human liver microsomes came to 183 mL/min/kg; the intrinsic clearance, rat liver microsomes came to 2180 mL/min/kg; the aqueous solubility worked out at 56.5 µg/mL (≈ 144 µM).
For `Cc1ccc2nc3c(c(C(=O)NCc4cnn(C)c4)c2c1)CCCC3`, in that order: 17.8, 36.9 mL/min/kg, 74.1 mL/min/kg and 56.3 µg/mL (≈ 168 µM).
Compound `CN(C)CCn1ccc2cc(NC(=O)c3ccc(=O)[nH]n3)ccc21` gave an aqueous solubility of 53.5 µg/mL (≈ 164 µM).
On to `CC(=O)N1CCC2(C=Cc3cc(C)c(C)cc3O2)CC1`, for which the MDR1-MDCK efflux ratio was determined as 0.579; the intrinsic clearance, human liver microsomes came out at 12.4 mL/min/kg; the intrinsic clearance, rat liver microsomes was found to be 1020 mL/min/kg.

As usually defined, the aqueous solubility is the concentration that dissolves in the medium under given conditions. A higher aqueous solubility goes with much dissolved substance.
